This is an account of results in ChEMBL document CHEMBL1201862, “PubChem BioAssay data set” (2004).

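Values below derive from 48-hour exposures of cells grown in 96-well plates, with endpoints linearly interpolated between the two concentrations bracketing the appropriate inhibition level. Here, GI50 denotes the concentration required for 50% inhibition of growth.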 Active and inactive are the calls of the source. Rule as the data show it: active = GI50 up to about 1.1 µM and inactive = higher.

Common to all, as to test: NCI-60 cell line screen, 48 h
The subject of experiment [1] is SW-620.
In experiment [2] the test system is RPMI-8226.
Experiment [3] concerns NCI-H23.
Experiment [4] deals with Hs-578T.
Experiment [5] deals with MDA-MB-231.
Experiment [6] concerns MDA-MB-435.
In experiment [7] the test system is SNB-19.
Experiment [8] concerns OVCAR-8.
For experiment [9], the system named is SF-539.
For experiment [10], the system named is SN12C.
In experiment [11] the test system is KM12.
For experiment [12], the system named is Malme-3M.
In experiment [13] the test system is SNB-75.
For experiment [14], the system named is TK-10.
Experiment [15] concerns IGROV-1.
The test system of experiment [16] is 786-0.
For experiment [17], the system named is DU-145.
The subject of experiment [18] is SF-295.
For experiment [19], the system named is RXF 393.
The test system of experiment [20] is SF-268.

On to `Nc1nc(Cl)c(N)c(NCC2(CO)CC(O)C2)n1` (configuration not stated), for which the GI50 in experiment [1], in [2], in [3], in experiment [4], in [5] and in experiment [6] was > 100 µM (inactive) in each case. For the same compound, the GI50 in [7], in experiment [8], in [9], in experiment [10], in experiment [11] and in experiment [12] was > 100 µM (inactive) in each case. Moreover, the GI50 in experiment [13], in experiment [14], in [15], in experiment [16], in experiment [17] and in [18] was > 100 µM (inactive) each time. For the same compound, the GI50 in experiment [19] and in experiment [20] was > 100 µM (inactive) in each case.

For `COC(=O)c1ccccc1CC1Cc2ccc3c(c2C1)CCC3` (configuration not stated), the GI50 is 39.4 µM (inactive) in [1]; 18.1 µM (inactive) in experiment [2]; 38.1 µM (inactive) in [3]; 37 µM (inactive) in [4]; 19.5 µM (inactive) in [5]; 22.9 µM (inactive) in [6]. In addition, the GI50 in experiment [7] was 48.6 µM (inactive); in experiment [8], 34.5 µM (inactive); in experiment [9] it was 56.2 µM (inactive); in experiment [10] it was 39.6 µM (inactive); in experiment [11], 30.1 µM (inactive); in [12], 19.4 µM (inactive). The GI50 in experiment [13] was 25.8 µM (inactive); in [14], 21.3 µM (inactive); in [15], 35.4 µM (inactive); in experiment [16], 33.3 µM (inactive); in [17], 45.1 µM (inactive); in experiment [18], 35.2 µM (inactive). Besides, the figures for the GI50 in experiment [19] and in [20] were 19.1 µM (inactive) and 41.3 µM (inactive), respectively.

As for `CSc1nnc(SC)nn1`, the GI50 is 17.2 µM (inactive) in experiment [1]; 13.3 µM (inactive) in experiment [2]; 20.8 µM (inactive) in experiment [3]; 27.2 µM (inactive) in [4]; 18.2 µM (inactive) in [5]; 16.9 µM (inactive) in experiment [6]. For the same compound, the GI50 in [7] is 20.7 µM (inactive); in experiment [8] it was 18.6 µM (inactive); in [9] it was 18.2 µM (inactive); in experiment [10], 21.1 µM (inactive); in experiment [11], 15.3 µM (inactive); in [12], 13 µM (inactive). Moreover, the GI50 is 17.4 µM (inactive) in [13]; 12.6 µM (inactive) in experiment [14]; 16.3 µM (inactive) in [15]; 13.8 µM (inactive) in experiment [16]; 20.4 µM (inactive) in experiment [17]; 18.1 µM (inactive) in experiment [18]. For the same compound, the GI50 was 16.7 µM (inactive) in experiment [19] and 15.9 µM (inactive) in experiment [20].

With `CCCCCCCCCCCCNC(C)=O`, the GI50 was 16.8 µM (inactive) in experiment [1]; 13.4 µM (inactive) in experiment [2]; 15.7 µM (inactive) in experiment [3]; 14.4 µM (inactive) in experiment [4]; 13.8 µM (inactive) in [5]; 18.2 µM (inactive) in experiment [6]. Besides, the GI50 in experiment [7] is 16.3 µM (inactive); in experiment [8], 18.9 µM (inactive); in [9], 16.3 µM (inactive); in [10], 16.6 µM (inactive); in [11], 17.8 µM (inactive); in experiment [12], 17.7 µM (inactive). For the same compound, the GI50 in experiment [13] is 23.6 µM (inactive); in [14], 13.7 µM (inactive); in experiment [16], 16.8 µM (inactive); in experiment [17], 30.9 µM (inactive); in experiment [18], 17.7 µM (inactive); in [19], 18.9 µM (inactive). In experiment [20], the GI50 is 14.3 µM (inactive).

Take `CCC1CN2CCc3c([nH]c4ccccc34)[C@@](C(=O)OC)(c3cc4c(cc3OC)N(C)C3C(O)(C(=O)OC)C(C(=O)OC)C5(CC)C=CCN6CCC43C65)C[C@@H](C2)[C@@H]1C(C)(C)C` (some centres not stated): the GI50 in experiment [1] is 0.33 µM (active); in experiment [2], 0.469 µM (active); in experiment [3], 0.352 µM (active); in [4], 0.463 µM (active); in [5], 0.407 µM (active); in experiment [6] it was 0.196 µM (active). Also, the GI50 in experiment [7] is 0.337 µM (active); in experiment [8] it was 0.5 µM (active); in [9] it was 0.381 µM (active); in experiment [10], 0.607 µM (active); in experiment [11], 0.419 µM (active); in experiment [12], 0.486 µM (active). Further, the GI50 in [13] is 0.337 µM (active); in experiment [14] it was 1.09 µM (active); in [15], 0.668 µM (active); in experiment [16], 0.439 µM (active); in experiment [17], 0.342 µM (active); in experiment [18], 0.226 µM (active). In addition, the GI50 is 0.285 µM (active) in experiment [19] and 0.615 µM (active) in experiment [20].

On to `CC(C)(CO)CNc1nc(N)nc(Cl)c1C=O`, for which the GI50 was 33.5 µM (inactive) in [1]; 60.5 µM (inactive) in experiment [2]; 40.4 µM (inactive) in experiment [3]; 22.9 µM (inactive) in [4]; 30.1 µM (inactive) in [5]; 25.9 µM (inactive) in experiment [6]. For the same compound, the GI50 was 22.5 µM (inactive) in experiment [8]; 54.2 µM (inactive) in experiment [9]; 18.9 µM (inactive) in experiment [10]; 90.4 µM (inactive) in experiment [11]; 39.7 µM (inactive) in [12]; 35.6 µM (inactive) in [13]. In addition, the GI50 in experiment [14] was 46.9 µM (inactive); in experiment [15], 20.1 µM (inactive); in experiment [16], 79.3 µM (inactive); in experiment [17] it was 94 µM (inactive); in [18], 42.4 µM (inactive); in experiment [19], 17.6 µM (inactive). Further, in experiment [20], the GI50 was 14 µM (inactive).

As for `Cc1cc(=O)[nH]c(-n2[nH]c3c(c2=O)CCCC3)n1`, the GI50 is 56 µM (inactive) in experiment [1]; 74.1 µM (inactive) in experiment [2]; 95.9 µM (inactive) in experiment [3]; 92.9 µM (inactive) in experiment [4]; 67.9 µM (inactive) in experiment [5]; > 100 µM (inactive) in experiment [6]. Moreover, the GI50 is > 100 µM (inactive) in experiment [7]; 88.5 µM (inactive) in [9]; 77.8 µM (inactive) in [10]; > 100 µM (inactive) in experiment [11]; > 100 µM (inactive) in experiment [12]; < 0.01 µM (active) in experiment [13]. Further, the GI50 was > 100 µM (inactive) in experiment [14]; 97.3 µM (inactive) in [15]; 57.7 µM (inactive) in experiment [16]; > 100 µM (inactive) in experiment [17]; 46 µM (inactive) in experiment [18]; 14.3 µM (inactive) in experiment [19]. In addition, the GI50 in experiment [20] is 28.2 µM (inactive).
